Drawing on patent publication US20120270237A9, “METHODS FOR THE IDENTIFICATION OF KINASE INTERACTING MOLECULES AND FOR THE PURIFICATION OF KINASE PROTEINS” (Cellzone AG, priority 2009, published 2012), this text covers inhibition and Competition % for 1 molecule.

Common to all, as to test: Kinobeads competition binding, L-363 cell lysate
Parameters in all cases: endogenous in cells
Holding throughout (conditions): 10 μM free compound, L-363 lysate

Assay [1] addresses CaMK2d (Homo sapiens, UniProt Q13557). In outline:
(§1)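 MG132-pretreated (20 μM, 3 h) L-363 lysate; 10 μM cpd vs DMSO; immobilized-cpd bead capture; SDS-PAGE, tryptic digest, iTRAQ 114/117; LC-MS/MS reporter quant.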

In assay [2] the target is GSK3A (Homo sapiens, UniProt P49840). In a few lines: as §1
Sequence of GSK3A (P49840 whole entry): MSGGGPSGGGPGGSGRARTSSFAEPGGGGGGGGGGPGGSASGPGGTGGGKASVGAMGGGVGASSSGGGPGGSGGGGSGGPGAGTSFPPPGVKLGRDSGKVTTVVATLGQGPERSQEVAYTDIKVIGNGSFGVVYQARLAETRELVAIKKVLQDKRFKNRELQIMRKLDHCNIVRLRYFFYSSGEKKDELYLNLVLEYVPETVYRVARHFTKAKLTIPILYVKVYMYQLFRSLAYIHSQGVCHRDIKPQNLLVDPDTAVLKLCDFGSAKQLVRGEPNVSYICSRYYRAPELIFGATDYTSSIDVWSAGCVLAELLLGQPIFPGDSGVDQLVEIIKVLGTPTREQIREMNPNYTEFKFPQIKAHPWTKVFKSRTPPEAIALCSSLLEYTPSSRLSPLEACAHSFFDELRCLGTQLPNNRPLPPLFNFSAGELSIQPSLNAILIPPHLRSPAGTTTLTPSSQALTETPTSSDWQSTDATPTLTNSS
In assay [3] the target is Wee1 (Homo sapiens, UniProt P30291). In outline: as §1
Sequence of Wee1 (P30291 whole entry): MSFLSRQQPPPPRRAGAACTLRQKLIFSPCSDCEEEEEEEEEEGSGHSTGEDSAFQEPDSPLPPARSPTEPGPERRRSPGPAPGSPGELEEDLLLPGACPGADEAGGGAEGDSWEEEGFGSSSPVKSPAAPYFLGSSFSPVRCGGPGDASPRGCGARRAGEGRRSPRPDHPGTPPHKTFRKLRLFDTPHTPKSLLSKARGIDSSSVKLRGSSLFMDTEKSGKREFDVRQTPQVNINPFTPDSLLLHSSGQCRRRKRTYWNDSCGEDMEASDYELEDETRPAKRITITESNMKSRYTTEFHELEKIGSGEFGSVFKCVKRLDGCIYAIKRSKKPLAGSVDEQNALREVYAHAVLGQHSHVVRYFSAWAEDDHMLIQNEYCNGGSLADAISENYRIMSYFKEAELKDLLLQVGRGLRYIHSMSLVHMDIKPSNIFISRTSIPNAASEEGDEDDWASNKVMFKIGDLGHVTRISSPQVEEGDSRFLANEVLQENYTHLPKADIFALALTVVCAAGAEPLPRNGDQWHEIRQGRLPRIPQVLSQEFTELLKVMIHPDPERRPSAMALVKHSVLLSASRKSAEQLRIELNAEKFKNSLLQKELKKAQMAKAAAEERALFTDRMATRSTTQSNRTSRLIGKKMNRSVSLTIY
The target in assay [4] is MYT1 (Homo sapiens, UniProt Q99640). In outline:
as §1

Assay [5] concerns the target AMPKa1 (Homo sapiens, UniProt Q13131). In outline: as §1
In assay [6] the target is Erk1 (Homo sapiens, UniProt P27361). In a few lines:
as §1

Assay [7] deals with MLK3 (Homo sapiens, UniProt Q16584). In a few lines: as §1
Sequence of MLK3 (Q16584 whole entry): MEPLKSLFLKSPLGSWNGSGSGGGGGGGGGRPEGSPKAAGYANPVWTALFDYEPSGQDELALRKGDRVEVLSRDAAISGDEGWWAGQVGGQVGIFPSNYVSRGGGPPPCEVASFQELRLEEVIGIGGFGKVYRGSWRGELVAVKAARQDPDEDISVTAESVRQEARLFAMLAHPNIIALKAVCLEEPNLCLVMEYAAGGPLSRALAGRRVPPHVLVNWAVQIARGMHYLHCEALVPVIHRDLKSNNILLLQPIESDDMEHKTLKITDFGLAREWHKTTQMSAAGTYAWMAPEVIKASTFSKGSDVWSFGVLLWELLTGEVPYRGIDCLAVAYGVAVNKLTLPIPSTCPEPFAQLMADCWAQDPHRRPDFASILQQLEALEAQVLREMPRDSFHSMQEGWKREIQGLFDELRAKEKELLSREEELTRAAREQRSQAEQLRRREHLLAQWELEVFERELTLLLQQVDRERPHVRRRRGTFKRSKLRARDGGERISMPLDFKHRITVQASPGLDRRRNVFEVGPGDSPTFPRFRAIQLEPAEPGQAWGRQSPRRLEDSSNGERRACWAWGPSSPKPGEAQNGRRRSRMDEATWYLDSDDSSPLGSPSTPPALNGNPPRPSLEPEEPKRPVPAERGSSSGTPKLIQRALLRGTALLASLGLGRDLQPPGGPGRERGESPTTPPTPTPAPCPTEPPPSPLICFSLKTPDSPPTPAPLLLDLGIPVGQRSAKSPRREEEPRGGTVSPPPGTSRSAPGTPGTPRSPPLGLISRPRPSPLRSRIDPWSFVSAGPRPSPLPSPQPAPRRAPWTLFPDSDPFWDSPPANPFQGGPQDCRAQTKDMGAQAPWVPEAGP
Assay [8] concerns the target T1, GAK (Homo sapiens, UniProt O14976).
T1 sequence (O14976 1-1311): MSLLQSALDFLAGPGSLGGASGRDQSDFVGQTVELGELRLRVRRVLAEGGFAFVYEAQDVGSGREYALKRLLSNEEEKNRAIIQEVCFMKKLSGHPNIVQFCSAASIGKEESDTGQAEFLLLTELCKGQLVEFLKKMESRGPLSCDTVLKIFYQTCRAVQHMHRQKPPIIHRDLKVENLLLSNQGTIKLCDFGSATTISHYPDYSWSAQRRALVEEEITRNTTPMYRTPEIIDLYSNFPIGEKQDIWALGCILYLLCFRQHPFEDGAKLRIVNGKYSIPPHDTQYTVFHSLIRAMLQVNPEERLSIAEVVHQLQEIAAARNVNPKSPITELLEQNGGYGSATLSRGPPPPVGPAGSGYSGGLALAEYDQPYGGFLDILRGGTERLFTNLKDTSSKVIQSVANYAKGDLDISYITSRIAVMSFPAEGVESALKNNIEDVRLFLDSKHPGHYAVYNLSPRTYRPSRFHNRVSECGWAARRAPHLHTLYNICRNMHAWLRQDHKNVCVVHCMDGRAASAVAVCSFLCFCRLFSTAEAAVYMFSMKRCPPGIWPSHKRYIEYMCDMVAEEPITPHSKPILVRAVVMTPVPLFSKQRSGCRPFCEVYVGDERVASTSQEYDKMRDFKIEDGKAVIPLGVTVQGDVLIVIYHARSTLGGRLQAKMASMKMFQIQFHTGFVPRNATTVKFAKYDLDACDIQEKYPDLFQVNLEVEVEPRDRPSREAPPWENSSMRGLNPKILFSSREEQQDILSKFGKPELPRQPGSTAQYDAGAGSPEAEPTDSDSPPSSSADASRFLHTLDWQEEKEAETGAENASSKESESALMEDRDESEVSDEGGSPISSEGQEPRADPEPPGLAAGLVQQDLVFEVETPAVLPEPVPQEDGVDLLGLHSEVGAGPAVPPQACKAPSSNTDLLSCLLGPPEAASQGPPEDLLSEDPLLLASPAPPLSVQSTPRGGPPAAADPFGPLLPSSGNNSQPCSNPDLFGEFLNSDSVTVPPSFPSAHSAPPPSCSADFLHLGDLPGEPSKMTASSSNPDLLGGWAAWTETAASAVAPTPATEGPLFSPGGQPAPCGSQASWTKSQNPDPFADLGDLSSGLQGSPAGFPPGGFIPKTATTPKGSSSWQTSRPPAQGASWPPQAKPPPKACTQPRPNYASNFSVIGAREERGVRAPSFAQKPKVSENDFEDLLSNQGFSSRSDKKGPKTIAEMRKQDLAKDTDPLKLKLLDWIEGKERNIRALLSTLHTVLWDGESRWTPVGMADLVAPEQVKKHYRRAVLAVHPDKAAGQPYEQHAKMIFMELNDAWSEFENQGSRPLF
In a few lines: as §1

Sequence of Erk1 (P27361 whole entry): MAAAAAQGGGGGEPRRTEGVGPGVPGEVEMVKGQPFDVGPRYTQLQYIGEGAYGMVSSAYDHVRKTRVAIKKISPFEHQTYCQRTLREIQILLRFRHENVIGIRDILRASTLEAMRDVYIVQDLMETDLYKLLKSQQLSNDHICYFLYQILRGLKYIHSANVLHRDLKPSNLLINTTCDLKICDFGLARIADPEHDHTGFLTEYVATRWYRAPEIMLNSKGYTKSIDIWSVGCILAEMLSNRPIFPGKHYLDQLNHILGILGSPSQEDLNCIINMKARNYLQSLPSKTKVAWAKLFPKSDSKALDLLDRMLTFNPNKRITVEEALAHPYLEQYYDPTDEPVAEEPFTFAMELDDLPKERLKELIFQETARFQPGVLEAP
Sequence of AMPKa1 (Q13131 whole entry): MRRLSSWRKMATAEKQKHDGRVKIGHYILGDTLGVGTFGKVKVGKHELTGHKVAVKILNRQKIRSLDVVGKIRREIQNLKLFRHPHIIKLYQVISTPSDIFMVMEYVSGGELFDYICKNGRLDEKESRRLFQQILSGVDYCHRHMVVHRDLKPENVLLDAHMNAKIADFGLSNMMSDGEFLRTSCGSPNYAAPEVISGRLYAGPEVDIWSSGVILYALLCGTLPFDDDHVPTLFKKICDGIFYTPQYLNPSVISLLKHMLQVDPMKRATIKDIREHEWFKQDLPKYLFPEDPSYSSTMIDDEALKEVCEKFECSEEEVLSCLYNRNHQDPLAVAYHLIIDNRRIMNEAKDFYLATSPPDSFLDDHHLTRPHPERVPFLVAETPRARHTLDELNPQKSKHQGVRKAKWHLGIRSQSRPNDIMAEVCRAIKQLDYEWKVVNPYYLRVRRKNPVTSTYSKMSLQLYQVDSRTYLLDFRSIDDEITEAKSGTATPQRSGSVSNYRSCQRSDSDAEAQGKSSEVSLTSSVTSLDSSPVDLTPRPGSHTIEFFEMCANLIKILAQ
Sequence of AMPKa1 (Q9Y478 2-270 partner limits assumed): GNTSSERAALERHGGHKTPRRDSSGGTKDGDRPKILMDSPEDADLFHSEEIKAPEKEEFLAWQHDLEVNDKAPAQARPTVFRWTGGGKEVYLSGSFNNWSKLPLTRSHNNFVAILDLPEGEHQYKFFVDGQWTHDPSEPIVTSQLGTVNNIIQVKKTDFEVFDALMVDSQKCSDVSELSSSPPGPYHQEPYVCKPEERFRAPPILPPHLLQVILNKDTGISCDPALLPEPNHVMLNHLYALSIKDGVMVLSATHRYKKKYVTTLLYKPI
Sequence of AMPKa1 (P54619 whole entry partner): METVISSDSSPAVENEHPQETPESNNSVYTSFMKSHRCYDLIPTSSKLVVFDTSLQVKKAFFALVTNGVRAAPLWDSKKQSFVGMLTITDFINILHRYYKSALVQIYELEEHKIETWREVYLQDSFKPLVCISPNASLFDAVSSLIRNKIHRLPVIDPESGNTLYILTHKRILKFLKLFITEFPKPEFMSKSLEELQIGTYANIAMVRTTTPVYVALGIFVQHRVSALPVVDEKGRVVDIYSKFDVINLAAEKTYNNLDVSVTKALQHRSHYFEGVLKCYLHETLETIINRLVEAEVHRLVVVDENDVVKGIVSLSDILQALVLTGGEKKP
Sequence of MYT1 (Q99640 whole entry): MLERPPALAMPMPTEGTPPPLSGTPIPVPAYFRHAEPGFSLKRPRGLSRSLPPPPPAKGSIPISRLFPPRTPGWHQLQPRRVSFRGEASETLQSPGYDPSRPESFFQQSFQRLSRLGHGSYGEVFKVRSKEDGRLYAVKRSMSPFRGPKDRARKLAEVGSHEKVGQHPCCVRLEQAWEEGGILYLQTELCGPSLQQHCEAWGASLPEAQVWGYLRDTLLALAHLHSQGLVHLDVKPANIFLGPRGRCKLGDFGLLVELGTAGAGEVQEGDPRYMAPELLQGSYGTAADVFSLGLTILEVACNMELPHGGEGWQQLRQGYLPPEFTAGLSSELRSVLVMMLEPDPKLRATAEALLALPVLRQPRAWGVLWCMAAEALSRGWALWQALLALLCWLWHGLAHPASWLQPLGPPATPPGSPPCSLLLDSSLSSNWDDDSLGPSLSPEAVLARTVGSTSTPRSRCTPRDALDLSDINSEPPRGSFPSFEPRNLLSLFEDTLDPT
Sequence of CaMK2d (Q13557 whole entry): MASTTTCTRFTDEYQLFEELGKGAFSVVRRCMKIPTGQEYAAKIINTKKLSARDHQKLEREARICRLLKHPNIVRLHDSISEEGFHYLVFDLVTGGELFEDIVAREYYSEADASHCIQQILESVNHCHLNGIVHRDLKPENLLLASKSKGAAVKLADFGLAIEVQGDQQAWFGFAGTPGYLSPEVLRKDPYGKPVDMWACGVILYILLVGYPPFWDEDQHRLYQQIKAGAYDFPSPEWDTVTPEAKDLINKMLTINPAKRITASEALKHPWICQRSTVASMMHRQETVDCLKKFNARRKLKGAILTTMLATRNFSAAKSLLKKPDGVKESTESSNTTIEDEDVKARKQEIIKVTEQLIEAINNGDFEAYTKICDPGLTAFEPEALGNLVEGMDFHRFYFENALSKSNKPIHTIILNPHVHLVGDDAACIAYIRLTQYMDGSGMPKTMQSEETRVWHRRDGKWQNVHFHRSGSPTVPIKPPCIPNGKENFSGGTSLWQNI

As to `CS(=O)(=O)Nc1ccccc1Nc1nc(Nc2cccc(OCCN)c2)ncc1Cl` [CZC31326, N-(2-(2-(3-(2-aminoethoxy)phenylamino)-5-chloropyrimidin-4-ylamino)phenyl)methanesulfonamide], the inhibition (as a rule, the share of the control response that was lost under treatment) at 10 µM in assay [1] came to 78%; in assay [2], 96.9%; in assay [3], 96.4%; in assay [5] it was 97.7%; in assay [6], 83.2%; in assay [8] it was 98.2%. Moreover, the Competition % in assay [4] amounted to 93.1%; in assay [7], 97.5%.
